# Measurements reported in patent publication EP0241395A2, “Sweeteners derived from n-phenylguanidinoacetic and n-phenylethananamidinacetic acids, and compositions containing such sweeteners” (UNIVERSITE CLAUDE BERNARD - LYON 1, priority 1986, dated 1987).
# System: groupe de huit goûteurs expérimentés
# Assay: Sweetening power judged by a panel of eight experienced tasters against a sucrose reference solution
# Type: in vivo
# Conditions: weight basis; for Pouvoir édulcorant: Table II, relative to a 2 % sucrose solution; for pouvoir édulcorant, sur une base pondérale: approximate
# From the text: Le pouvoir édulcorant des composés préparés dans les exemples suivants a été évalué par un groupe de huit goûteurs expérimentés. Pour cela, les composés, en solution aqueuse à des concentrations variables, sont comparés, sur le plan gustatif, à une solution témoin de saccharose à 2 % et dans certains cas à 5 % et 10 %, c'est-à-dire à des concentrations correspondant à celles utilisées lors d'un usage courant. Le pouvoir sucrant des édulcorants de synthèse varie en effet suivant la concentration de la solution de saccharose utilisée comme référence. Le pouvoir édulcorant du composé testé par rapport au saccharose correspond alors au rapport pondéral qui existe entre le composé et le saccharose à égale intensité édulcorante, c'est-à-dire quand les saveurs sucrées de la solution du composé testé et de la solution témoin de saccharose sont considérées, par une majorité de goûteurs, avoir la même intensité édulcorante.
# [1] = by comparison with a 2 % sucrose solution
# [2] = by comparison with a 5 % sucrose solution
# [3] = by comparison with a 10 % sucrose solution
Structure (SMILES),Pouvoir édulcorant,"pouvoir édulcorant, sur une base pondérale [1]","pouvoir édulcorant, sur une base pondérale [2]","pouvoir édulcorant, sur une base pondérale [3]"
"COC(=O)c1ccc(N=C(NCC(=O)O)NCC2CCCCC2)cc1 [Exemple 60, acide N-[N-cyclohexylméthylamino(4-méthoxycarbonylphénylimino)méthyl]-2-aminoéthanoïque]",1300,~1 300 fois celui du saccharose,~900 fois celui du saccharose,~500 fois celui du saccharose
"C[C@H](NC(=Nc1cc(F)cc(F)c1)NCC(=O)O)c1ccccc1 [Exemple 27, acide N-[N-(S)-α-méthylbenzylamine (3,5-difluorophënylimino)méthyl]-2-aminoéthanoïque]",15000,~15 000 fois celui du saccharose,–,–
"N#Cc1ccc(N=C(NCC(=O)O)Nc2ccccc2)cc1 [Exemple 41, acide N-[N-phénylamino(4-cyanophénylimino)méthyl]-2-aminoéthanoïque]",4000,~4 000 fois celui du saccharose,~1 800 fois celui du saccharose,~650 fois celui du saccharose
"O=C(O)CNC(=Nc1cc(Cl)cc(Cl)c1)NC1CCCCCC1 [Exemple 44, acide N-[N-cycloheptylamino (3,5-dichlorophénylimino)méthyl]-2-aminoéthanoïque]",20000,~20 000 fois celui du saccharose,–,–
"O=C(O)CNC(=Nc1cccc2ccccc12)Nc1cc(Cl)cc(Cl)c1 [Exemple 68, acide N-[N-1-naphtylamino (3,5-dichlorophénylimino)méthyl]-2-aminoéthanoïque]",30000,~30 000 fois celui du saccharose,–,–
"O=C(O)CNC(=Nc1cc(Cl)cc(Cl)c1)NC1CCCCCCC1 [Exemple 46, acide N-[N-cyclooctylamino (3,5-dichlorophénylimino)méthyl]-2-aminoéthanoïque]",60000,~60 000 fois celui du saccharose,–,–
"CC(C)(C)CC(C)(C)NC(=Nc1ccc(C#N)cc1)NCC(=O)O [Exemple 39, acide N-[N-(1,1,3,3-tétraméthylbut-yl)amino(4-cyanophénylimino)méthyl]-2-aminoéthanoïque]",1 200,~1 200 fois celui du saccharose,–,–
C[C@H](NC(=Nc1cccc(C(F)(F)F)c1)NCC(=O)O)c1ccccc1 [Exemple 3],7 500,~7 500 fois celui du saccharose,–,–
"N#CN=C(NCC(=O)O)Nc1cccc(Cl)c1 [Exemple 73, acide N-[cyanoimino(3-chlorophénylamino)méthyl]-2-aminoéthanoïque]",80,~80 fois celui du saccharose,–,–
"COC(=O)c1ccc(N=C(NCC(=O)O)N[C@@H](C)c2ccccc2)cc1 [Exemple 16, acide N-[N-(S)-α-méthylbenzylamino (4-méthoxycarbonylphénylimino)méthyl]-2-aminoéthanoïque]",700,~700 fois celui du saccharose,–,–
"CC(=O)c1ccc(N=C(NCC(=O)O)N[C@@H](C)c2ccccc2)cc1 [Exemple 15, acide N-[N-(S) -α-méthylbenzylamino (4-acétylphénylimino)méthyl]-2-aminoéthanoïque]",800,~800 fois celui du saccharose,–,–
"CC(C)N(C)C(=Nc1ccc(C#N)cc1)NCC(=O)O [Exemple 32, acide N-[N-méthyl-N-1-méthyléthyl-amino(4-cyanophénylimino)méthyl]-2-aminoéthanoïque]",80,~80 fois celui du saccharose,–,–
"N#Cc1ccc(N=C(NCC(=O)O)NC2CCCCCCCC2)cc1 [Exemple 50, acide N-[N-cyclononylamino(4-cyanophénylimino)méthyl]-2-aminoéthanoïque]",200000,~200 000 fois celui du saccharose,–,–
"O=C(O)CNC(=Nc1cc(Cl)cc(Cl)c1)NCc1ccccc1 [Exemple 51, acide N-[N-benzylamino(3,5-dichlorophénylimino)méthyl]-2-aminoéthanoïque]",80000,~80 000 fois celui du saccharose,–,–
"C[C@H](NC(=Nc1ccc(C(F)(F)F)cc1)NCC(=O)O)c1ccccc1 [Exemple 11, acide N-[N-(S)-α-méthylbenzylamino (4-trifluorométhylphénylimino)méthyl]-2-aminoéthanoïque]",500,~500 fois celui du saccharose,–,–
"CN(C(=NCc1ccccc1)NCC(=O)O)c1ccccc1 [Exemple 84, acide N-[benzylimino(N-méthyl-N-phénylamino)méthyl]-2-aminoéthanoïque]",200,~200 fois celui du saccharose,–,–
"CCC(C)(C)NC(=Nc1ccc(C#N)cc1)NCC(=O)O [Exemple 38, acide N-[N-(1,1-diméthylpropyl)amino(4-cyanophénylimino)méthyl]-2-aminoéthanoïque]",300,~300 fois celui du saccharose,–,–
"CC(C)CCNC(=Nc1ccc(C#N)cc1)NCC(=O)O [Exemple 37, acide N-[N-(3-méthylbutyl)amino (4-cyanophénylimino)méthyl)-2-aminoéthanoïque]",200,~200 fois celui du saccharose,–,–
"N#Cc1ccc(N=C(NCC(=O)O)NCc2ccccc2)cc1 [Exemple 52, acide N-[N-benzylamino(4-cyanophénylimino)méthyl]-2-aminoéthanoïque]",30000,~30 000 fois celui du saccharose,~27 000 fois celui du saccharose,~22 000 fois celui du saccharose
"O=C(O)CNC(=Nc1cc(Cl)cc(Cl)c1)NN1CCOCC1 [Exemple 76, acide N-[N-morpholinoamino (3,5-dichlorophénylimino)méthyl]-2-aminoéthanoïque]",500,~500 fois celui du saccharose,–,–
"CCNC(=Nc1ccc(C#N)cc1)NCC(=O)O [Exemple 35, acide N-[N-éthylamino(4-cyanophénylimino)méthyl]-2-aminoéthanoïque]",350,~350 fois celui du saccharose,–,–
"Cc1cccc(NC(=Nc2ccc(C#N)cc2)NCC(=O)O)c1 [Exemple 65, acide N-[N-(3-méthylphényl)amino(4-cyanophénylimino)méthyl]-2-aminoéthanoïque]",9000,~9 000 fois celui du saccharose,–,–
"C[C@H](NC(=Nc1cccc(Br)c1)NCC(=O)O)c1ccccc1 [Exemple 2, acide N-[N-(S)-a-méthylbenzylamino (3-bromophénylimino)méthyl]-2-aminoéthanoïque]",25000,~25 000 fois celui du saccharose,–,–
"CCCCCCN=C(NCC(=O)O)Nc1ccc(C#N)cc1 [Exemple 36, acide N-[N-hexylamino(4-cyanophénylimino)méthyl]-2-aminoéthanoïque]",6000,~6 000 fois celui du saccharose,~4 300 fois celui du saccharose,~1400 times sucrose
"CSc1cccc(N=C(NCC(=O)O)N[C@@H](C)c2ccccc2)c1 [Exemple 10, acide N-[N-(S)-a-méthylbenzylamino (3-méthylmercaptophénylimino)méthyl]-2-aminoéthanoïque]",5 500,~5 500 fois celui du saccharose,–,–
"N#Cc1ccc(N=C(NCC(=O)O)NC23CC4CC(CC(C4)C2)C3)cc1 [Exemple 71, acide N-[N-(1-adamantyl)amino(4-cyanophénylimine)méthyl]-2-8minoéthanoique]",3 500,~3 500 fois celui du saccharose,–,–
"Cc1cc(C)cc(N=C(NCC(=O)O)N[C@@H](C)c2ccccc2)c1 [Exemple 25, acide N-[N-(S)-α-méthylbenzylamino (3,5-diméthylphénylimino)méthyl]-2-aminoéthanoïque]",30000,~30 000 fois celui du saccharose,–,–
"Cc1ccc(NC(=Nc2ccc(C#N)cc2)NCC(=O)O)cc1 [Exemple 66, acide N-[N-(4-méthylphényl)amino(4-cyanophénylimino)méthyl]--2-aminoéthanoïque]",7000,~7 000 fois celui du saccharose,–,–
"N#Cc1ccc(N=C(NCCc2ccccc2)NCC(=O)O)cc1 [Exemple 53, acide N-[N-phényléthylamino(4-cyanophénylimino)méthyl]-2-aminoéthanoïque]",8 500,~8 500 fois celui du saccharose,~6 100 fois celui du saccharose,~4 200 fois celui du saccharose
"C[C@@H](NC(=Nc1ccc(C#N)cc1)NC1CCCCCCC1)C(=O)O [Exemple 87, acide (R)-N-[N-cyclooctylamino(4-cyanophénylimino)méthyl]-2-aminopropanoïque]",900,~900 fois celui du saccharose,–,–
